Experimental findings from PubChem BioAssay (NCI) are described below.

Several values for one entry are separate records, joined by “and”; a condition that tells them apart may be missing. Equal values may be shown once.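 Dose response: 5 concentrations. Exposure: 48 h. Format: 96-well plates. Endpoint: linear interpolation; highest concentration if not reached. TGI denotes the concentration required for complete inhibition of growth.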

Test in all cases: NCI tumour cell line growth inhibition, 48 h
The test system of assay [1] is OVCAR-3 ovarian.
Assay [2] deals with SK-MEL-28 melanoma.
Assay [3] deals with SNB-19 CNS.
In assay [4] the test system is KM12 colon.
The subject of assay [5] is HCT-116 colon.
The subject of assay [6] is MOLT-4 leukemia.
Assay [7] concerns SR leukemia.
Assay [8] concerns U251 CNS.
In assay [9] the test system is BT-549 breast.
The test system of assay [10] is HOP-62 NSCLC.

For `NC1=NS(=O)(=O)N=C(N)C1=Cc1ccc([N+](=O)[O-])o1`, the TGI is 32.4 µM in [1]; 29.5 µM in assay [2]; above 100 µM in assay [3]; 34.5 µM in assay [4]; 28.7 µM in assay [5]; 40.7 µM in assay [6]. For the same compound, the TGI is 29.2 µM in assay [7] and above 100 µM in assay [8].

Consider `CCCCn1cc(C(=O)O)c(=O)c2c3sccc3ccc21`, for which the TGI in assay [1], in assay [2], in [3], in [9], in assay [4] and in assay [5] was above 100 µM throughout. For the same compound, the TGI in assay [6], in [8] and in assay [10] was above 100 µM each time.

For the compound `COc1ccccc1C(=O)c1c(N2CCCCC2)c(=O)c1=O`, the TGI in assay [1], in [2], in assay [3], in [9], in assay [4] and in assay [5] was above 100 µM each time. For the same compound, the TGI in assay [6], in assay [8] and in assay [10] was above 100 µM each time.

As to `CCCCCCCCCCCCCCCCOCC(CC(F)(F)P(=O)(O)O)OC(C)=O` (centres undefined), the TGI in assay [1], in assay [2], in assay [3], in [9], in [4] and in [5] was above 50 µM each time. Moreover, the TGI in [6], in [8] and in assay [10] was above 50 µM each time.

On to `c1ccc(C2=NN3CN(N2)c2ccccc2OCCCOc2ccccc23)cc1`, for which the TGI in [1], in assay [2], in assay [3], in assay [4], in [5] and in assay [6] was above 100 µM in each case. For the same compound, the TGI in assay [7], in assay [8] and in [10] was above 100 µM throughout.

Turning to `N#Cc1c(N)c(-c2ccc(Cl)cc2)c(F)c2ccccc12`, the TGI in [1], in assay [2], in assay [3], in [9], in assay [4] and in assay [5] was above 100 µM in each case. The TGI in assay [8] and in assay [10] was above 100 µM throughout.

Regarding `CCOC(=O)C1C/C(C)=C(/C)SCCCS1` (centres undefined), the TGI in assay [1], in [2], in assay [3], in assay [4], in [5] and in [6] was above 100 µM each time. The TGI in [7], in assay [8] and in assay [10] was above 100 µM in each case.

For `O=C(C[C@@H]1NCCC[C@H]1O)Cn1cnc2cc(Br)c(Cl)cc2c1=O`, the TGI in assay [1] amounted to 0.9 µM; in assay [2], 0.119 µM; in [3] it was 0.484 µM; in assay [9] it was 0.259 µM; in assay [4] it was 0.101 µM; in assay [5], 0.121 µM. Moreover, the TGI was above 100 µM in [6], 0.256 µM in assay [8] and 1.01 µM in assay [10].

In the case of `CC1(C)CC(=O)C(/C=N/c2nc(-c3ccc(Br)cc3)cs2)=C(O)C1`, the TGI was 62.1 µM in [1]; above 100 µM in assay [2]; above 100 µM in assay [3]; 37.8 µM in [9]; above 100 µM in assay [4]; above 100 µM in [5]. Moreover, the TGI in assay [6], in [8] and in assay [10] was above 100 µM in each case.

As to `Cc1ccc(S(=O)(=O)Nn2c(-c3ccccc3)c(C#N)c(-c3ccc([N+](=O)[O-])cc3)c(C#N)c2=O)cc1`, the TGI in assay [2], in assay [3], in [9], in assay [4], in [5] and in assay [6] was above 100 µM each time. Further, the TGI in [8] and in assay [10] was above 100 µM in each case.

`C#CC(C)(C)Oc1cc(OC)c2c(=O)c3ccccc3n(C)c2c1`: the TGI was 42.6 µM in assay [2]; 93.8 µM in assay [3]; 37.8 µM in [4]; above 100 µM in [5]; 22.3 µM in [6]; 14.9 µM in assay [7]. For the same compound, the TGI in assay [8] and in assay [10] was above 100 µM each time.

As for `CC(C)(CN1CCCCC1)C(=O)CC(SCCS(=O)(=O)O)c1ccc(Br)cc1` (centres undefined), the TGI was 8.7 µM in assay [2]; 5.44 µM in [3]; 5.36 µM in assay [4]; 3.04 µM in assay [5]; 7.62 µM in assay [6]; 3.16 µM in [8]. Moreover, the TGI in assay [10] amounted to 18 µM.

As for `CC1CN=C(c2cccc(OCc3ccc(COc4cccc(C5=NCC(C)N5)c4)cc3)c2)N1` (centres undefined), the TGI was above 100 µM in [1]; above 100 µM in assay [2]; above 100 µM in assay [3]; above 100 µM in assay [9]; 81.7 µM in assay [4]; above 100 µM in assay [5]. Moreover, the TGI in assay [6] is 57.3 µM; in [8], above 100 µM; in assay [10], above 100 µM.

Turning to `O=C(Cn1c2ccc(Br)cc2c2nc3ccccc3nc21)NC1CCCCC1`, the TGI in assay [1], in assay [2], in assay [3], in assay [9], in assay [4] and in [5] was above 100 µM each time. The TGI in assay [6], in [8] and in assay [10] was above 100 µM throughout.

Consider `CC1=NNC(N)=N/C1=C/C(Sc1ccc(Cl)cc1)c1cccs1` (centres undefined), for which the TGI in assay [2] was 39.7 µM; in [3], 85.7 µM; in assay [9], above 100 µM; in assay [4], 23.1 µM; in assay [5], 29.8 µM; in [6], above 100 µM. For the same compound, the TGI in assay [8] is above 100 µM; in assay [10], 28.7 µM.

With `Cc1nc2c(n1Cc1ccc(Cl)cc1)C(=O)c1ccccc1C2=O`, the TGI in assay [1], in assay [2], in assay [3], in [4], in assay [5] and in assay [6] was above 75 µM throughout. Also, the TGI in [7], in assay [8] and in [10] was above 75 µM in each case.

Regarding `O=C1c2cc3c(cc2CC12Cc1cc4c(cc1C2)CCC4)CCC3`, the TGI in assay [1], in assay [2], in assay [3], in assay [4], in assay [5] and in assay [6] was above 100 µM throughout. Further, the TGI in assay [7], in [8] and in assay [10] was above 100 µM throughout.

For `O=C(c1ccccc1F)c1c(NCc2ccccc2)c(=O)c1=O`, the TGI in assay [1], in assay [2], in assay [3], in [9], in assay [4] and in [5] was above 100 µM in each case. Also, the TGI in assay [6], in assay [8] and in [10] was above 100 µM in each case.

With `CCCCN(CCCC)C(=NCc1ccccc1)NC#N`, the TGI was 35.3 µM in assay [1]; 54.2 µM in assay [3]; 83.6 µM in assay [4]; 65.4 µM in [5]; 35.7 µM in assay [8]; 55.5 µM in assay [10].

`Brc1ccc(N2C[N+](c3ccc(Br)cc3)=NC(c3ccccc3)=N2)cc1`: the TGI in assay [2] is 39.2 µM and > 100 µM; in assay [3], 32.6 µM and > 100 µM; in [4] it was 28.1 µM and > 100 µM; in [5], 32.9 µM and > 100 µM; in assay [6], 32.5 µM and > 100 µM; in assay [8], 33.5 µM and > 100 µM. For the same compound, in assay [10], the TGI was 31.2 µM and > 100 µM.

For `Cc1cc(S(=O)(=O)Nc2n[nH]c(Nc3ccccc3)n2)c(S)cc1Cl`, the TGI in [1], in assay [2], in [3], in assay [9], in assay [4] and in assay [5] was above 10 µM throughout. Besides, the TGI in assay [6], in assay [8] and in assay [10] was above 10 µM in each case.

With `Oc1ccc(-c2c3c(nc4c2CCc2ccc(Br)cc2-4)-c2cc(Br)ccc2CC3)cc1`, the TGI in [1] was found to be 29.5 µM; in assay [2] it was 38.9 µM; in [3] it was 46.9 µM; in assay [9] it was 43.1 µM; in assay [4], 42.5 µM; in assay [5] it was 53.7 µM. Moreover, the TGI in assay [8] was 34.2 µM; in [10] it was 33.6 µM.

As to `O=C(c1cccs1)N(C(=S)N1CCN(c2ccccc2)CC1)c1ccccc1`, the TGI in assay [1], in assay [2], in assay [3], in [4], in assay [5] and in assay [6] was above 100 µM throughout. In addition, the TGI in assay [7], in [8] and in assay [10] was above 100 µM each time.
